In one series the test system is MV4-11 xenograft. Nature of the series: MV4-11 mouse tumor xenograft, oral administration.
In the next series the test system is MDA-MB-231 xenograft. Kind of series: MDA-MB-231 mouse tumor xenograft. It is filed as in vivo. The settings on record: 20 mg/kg/p.o/day, 4 weeks. The procedure:
6-weeks-old Balb/c nu/nu mice (female) were purchased from Central Lab. Animal Inc. to be used. […] The candidate substances LDD-2614 (Compound 21), 2633 (Compound 28), 2634 (Compound 34), 2635 (Compound 33) were administered at 20 mg/kg/p.o/day, and doxorubicin, which was a control, was administered at 5 mg/kg/i.p (once a week) for 4 weeks.

The subject of the next series is MDA-MB-231. Kind of series: Cell viability, EZ-Cytox tetrazolium assay, MDA-MB-231. It counts as cell-based, human. The settings on record: 72 hours. How it is done: MDA-MB-231 (metastatic breast cancer, ATCC HTB-26), Jurkat (human acute T lymphocytic leukemia, ATCC TIB-152), and K-562 (human chronic myelogenous leukemia, ATCC CCL-243) cells were cultured in RPMI-1640 (Sigma Co.). MCF7 (human breast adenocarcinoma, ATCC HTB-22) and PC-3 (human prostate adenocarcinoma, ATCC CRL-1435) cells were cultured in DMEM (Sigma Co.) medium supplemented with 10% fetal bovine serum and 1% penicillin/streptomycin. The cultured cells were incubated at 3° C. with 5% CO2.
(§1) Cell viability was assessed by a tetrazolium-based assay using the EZ-Cytox Cell Viability Assay kit (DaeilLab, Korea). Briefly, 2,000 to 15,000 cells were plated in 96-well plates in 100 μl of medium. The next day, the cells were treated with compounds together with dimethyl sulfoxide (DMSO) as a negative control. Three days (72 hours) after the drug addition, 15 μl of the EZ-Cytox kit reagent was added to each well of the 96-well plate and then incubated at 37° C. in a humidified CO2 incubator for 4 hours. After incubation, the optical density (OD) was measured at a wavelength of 450 nm using a Victor multilabel reader (Perkin Elmer, Waltham, Mass., USA). The IC50 was calculated by nonlinear regression using Prism version 5.01 (GraphPad, La Jolla, Calif., USA).

In a further series the test system is MV4;11 cells. Kind of series: Cell viability, EZ-Cytox tetrazolium assay, MV4;11. It is filed as cell-based, human. The settings on record: 72 hours; for GI50: read-out: GI50(nM) MV4;11. The procedure:
The cultured cells were incubated at 3° C. with 5% CO2.
as §1, with “USA).” for “USA). The IC50 was calculated by nonlinear regression using Prism version 5.01 (GraphPad, La Jolla, Calif., USA).”

The next series deals with FLT3 kinase (Homo sapiens (Human), UniProt P36888). Kind of series: In vitro FLT3 kinase HTRF assay (Example 2). It is filed as biochemical. To be noted: HTRF. How it is done:
Inhibition of the FLT3 kinase activity was measured using homogeneous, time-resolved fluorescence (HTRF) assays. Recombinant proteins containing the FLT3 kinase domain were purchased from Carna biosciences (Japan). Optimal enzyme, ATP, and substrate concentrations were established using the HTRF KinEASE kit (Cisbio, France) according to the manufacturer's instructions. The FLT3 enzymes were mixed in sequence with diluted compounds and peptide substrates in a kinase reaction buffer (50 mM HEPES (pH 7.0), 500 μM ATP, 0.1 mM sodium orthovanadate, 5 mM MgCl2, 1 mM DTT, 0.01% bovine serum albumin (BSA), and 0.02% NaN3). After the addition of the reagents for detection, the TR-FRET signal was measured using a Victor multilabel reader (Perkin Elmer, Waltham, Mass., USA). […] JAK2, JAK3, cMET, and RET in vitro kinase assays were also performed using the HTRF assay.

The subject of the next series is MOLM14 FLT3-ITD-D835Y. Kind of series: Cell proliferation MTT assay, MOLM14-ITD-D835Y. It counts as cell-based, human. To be noted: for GI50: Homo sapiens, MOLM-14.
Another series has as its system MOLM14 Wild type. Kind of series: Cell proliferation MTT assay, MOLM14 wild type. It counts as cell-based. The settings on record: Homo sapiens, MOLM-14.
The mark [1] stands for this setting: Table 1, recombinant FLT3 kinase domain, 500 μM ATP.

Structures can show the parent of a compound that is named as a salt. Where two headings read alike, the source gives them in different places.

Sequence of FLT3 kinase (P36888 610-943): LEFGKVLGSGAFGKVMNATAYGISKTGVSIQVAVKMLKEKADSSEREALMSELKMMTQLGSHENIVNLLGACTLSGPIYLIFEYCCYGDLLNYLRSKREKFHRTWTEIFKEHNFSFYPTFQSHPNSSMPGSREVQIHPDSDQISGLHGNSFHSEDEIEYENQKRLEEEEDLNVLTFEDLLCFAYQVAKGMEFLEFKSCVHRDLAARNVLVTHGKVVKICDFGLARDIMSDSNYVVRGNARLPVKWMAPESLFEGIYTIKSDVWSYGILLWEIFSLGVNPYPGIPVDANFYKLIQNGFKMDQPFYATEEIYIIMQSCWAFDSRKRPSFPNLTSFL
Experimental for MOLM14 FLT3-ITD-D835Y: (§2) MOLM14 were purchased from the ATCC and the cells were maintained in RPMI medium (Hyclone) with 10% Fetal bovine serum (Gibco) and 1% penicillin/streptomycin.
Mutagenesis is performed in FLT3-ITD MSCV plasmid using Q5 site-directed mutagenesis kit (E05545). […] Retroviral particles were produced by transiently transfecting HEK293T cells with Retroviral vectors together with packaging vectors, GPE and VSVG. 48 h after transfection, media containing viral particles were collected and filtered for infection. Viral particles were infected to MOLM14 cells and 48 h after infection, infected cells were selected with puromycin (1 μg/mL).
Text for MOLM14 Wild type: as §2
Experimental for MV4-11 xenograft: The drug or the control PBS was administered daily for a duration of 21 days. Tumor sizes were measured twice a week for 21 days, and the tumor volumes were calculated with the following formula: V (volume)=X (length)×D (width)2/2. After 21 days, the mice were sacrificed, and the tumor weights were measured.
An in vivo MV4-11 xenograft study was performed to determine the efficacy of the indirubin derivatives. MV4-11 cells were subcutaneously injected into BALB/c nu/nu mice, and tumors were allowed to grow to a size of approximately 100 mm^3.

For `Cl.Cl.O=C1Nc2ccccc2/C1=C1/Nc2ccccc2/C1=N\OCCN1CCNCC1` [Compound 28, (2Z,3E)-3-((2-(piperazin-1-yl)ethoxy)imino)-[2,3′-biindolinylidene]-2′-one dihydrochloride], the “weight loss or other signs of toxicity during the administration period” value in the series with MV4-11 xenograft (20 mg/kg oral once daily for 21 days) is on record as “no weight loss or any other signs of toxicity”. In addition, the “day by which the tumor disappeared” value in the series on MV4-11 xenograft (20 mg/kg oral once daily, based on measured tumor volume) was at most 14 days. Besides, in the series on MDA-MB-231 xenograft, the “weights of the liver and the kidney” value is on record as “no significant difference”. Besides, the concentration for 50% growth inhibition (GI50) in the series with MDA-MB-231 (Homo sapiens, MDA-MB-231) came out at 276 nM; in the series on MV4;11 cells (Homo sapiens, MV4-11), 0.51 nM.

Consider `O=C1Nc2ccc(C(=O)O)cc2/C1=C1/Nc2ccccc2/C1=N\OCCBr` [Compound 8, (2Z,3E)-3-((2-bromoethoxy)imino)-2′-oxo-[2,3′-biindolinylidene]-5′-carboxylic acid], for which the IC50 at FLT3 kinase (setting [1]) was found to be 13 nM; in the series on MV4;11 cells (Homo sapiens, MV4-11, Table 1), 340 nM.

Consider “(2Z,3E)-34(2-(piperazin-1-yl)ethoxy)imino)-5′-(trifluoromethoxy)-[2,3′-biindolinylidene]-2′-one dihydrochloride [Compound 44]”, for which half-maximal inhibition on FLT3 kinase (Table 2) (IC50) was put at 40.2 nM. Moreover, the GI50 in the series on MV4;11 cells came out at 20 nM.

For `NCCO/N=C1/C(=C2/C(=O)Nc3ccc(C(=O)O)cc32)Nc2ccccc21` [Compound 9, (2Z,3E)-3-((2-aminoethoxy)imino)-2′-oxo-[2,3′-biindolinylidene]-5′-carboxylic acid hydrochloride], the IC50 came out at 3 nM at FLT3 kinase (setting [1]) and 150 nM in the series with MV4;11 cells (Homo sapiens, MV4-11, Table 1).

`O=C1Nc2ccc(C(=O)O)cc2/C1=C1/Nc2ccccc2/C1=N\O` [Compound 7, (2Z,3E)-3-(hydroxyimino)-2′-oxo-[2,3′-biindolinylidene]-5′-carboxylic acid]: the IC50 on FLT3 kinase (setting [1]) amounted to 8 nM; in the series with MV4;11 cells (Homo sapiens, MV4-11, Table 1), 4020 nM. In addition, the “Ic50 (nM) MV4;11” value in the series on MV4;11 cells (Table 1) was “lacking anti-proliferative activity”.

On to `CN1CCN(CCO/N=C2/C(=C3/C(=O)Nc4ccc(Br)cc43)Nc3ccccc32)CC1` [Compound 41, (2Z,3E)-5′-bromo-3-((2-(4-methylpiperazin-1-yl)ethoximino)-[2,3′-biindolinylidene]-2′-one dihydrochloride], for which the half-inhibitory concentration (IC50) against FLT3 kinase (Table 2) came out at 4.8 nM. Further, the GI50 in the series with MV4;11 cells is 25 nM.

On to “(2Z,3E)-5′-fluoro-3-((2-(pyrrolidin-1-yl)ethoximino)-[2,3′-biindolinylidene]-2′-one hydrochloride [Compound 36]”, for which half-maximal inhibition against FLT3 kinase (Table 2) (IC50) was put at 267 nM. Besides, the GI50 with MDA-MB-231 came out at 805 nM; in the series with MV4;11 cells, 212 nM.

“(2Z,3E)-3-((2-(4-methylpiperazin-1-yl)ethoxy)imino)-5′-(trifluoromethox[2,3′-biindolinylidene]-2′-one dihydrochloride [Compound 45]”: the midpoint of inhibition against FLT3 kinase (Table 2), the IC50, lay at 5.6 nM. In addition, the GI50 with MV4;11 cells was 22 nM.

As to `O=C1Nc2ccc(F)cc2/C1=C1/Nc2ccc(F)cc2/C1=N\OCCN1CCOCC1` [Compound 27, (2Z,3E)-5,5′-difluoro-3-((2-morpholinoethoxy)imino)-[2,3′-biindolinylidene]-2′-one hydrochloride], on FLT3 kinase (Table 2), the IC50 came to 939 nM. For the same compound, the GI50 is over 10 nM in the series on MDA-MB-231 (Homo sapiens, MDA-MB-231) and 116 nM in the series on MV4;11 cells (Homo sapiens, MV4-11).

As for `Cl.Cl.O=C1Nc2ccc(F)cc2/C1=C1/Nc2ccc(F)cc2/C1=N\OCCN1CCNCC1` [Compound 21, (2Z,3E)-5,5′-difluoro-3-((2-(piperazin-1-yl)ethoxy)imino)-[2,3′-biindolinylidene]-2′-one dihydrochloride], in the series on MDA-MB-231 xenograft, the “weights of the liver and the kidney” value is “no significant difference”. Further, the GI50 was found to be 121 nM with MDA-MB-231 (Homo sapiens, MDA-MB-231) and 8.9 nM in the series with MV4;11 cells (Homo sapiens, MV4-11).

Compound `O=C1Nc2ccc([N+](=O)[O-])cc2/C1=C1/Nc2ccc(O)cc2/C1=N\O` [Compound 13, (2Z,3E)-5-hydroxy-3-(hydroxyimino)-5′-nitro-[2,3′-biindolinylidene]-2′-one] gave an IC50 on FLT3 kinase (Table 2) of 23.4 nM. For the same compound, the GI50 is 568 nM with MDA-MB-231 (Homo sapiens, MDA-MB-231) and 170 nM in the series with MV4;11 cells (Homo sapiens, MV4-11).

With `CC1(COc2ccc3c(c2)ncn3-c2ccc3cccc(N4CCC(N)CC4)c3n2)COC1` [Crenolanib], the results for the GI50 in the series on MOLM14 FLT3-ITD-D835Y and in the series on MOLM14 Wild type were 15 nM and 4.7 nM, respectively.

In the case of `COC(=O)c1ccc2c(c1)/C(=C1/Nc3ccccc3/C1=N\OCCBr)C(=O)N2` [Compound 2, Methyl (2Z,3E)-3-((2-bromoethoxy)imino)-2′-oxo-[2,3′-biindolinylidene]-5′-carboxylate], the IC50 on FLT3 kinase (setting [1]) was 19 nM; in the series on MV4;11 cells (Homo sapiens, MV4-11, Table 1) it was 51 nM.

Regarding `CNC(=O)c1cc(Oc2ccc(NC(=O)Nc3ccc(Cl)c(C(F)(F)F)c3)cc2)ccn1` [Sorafenib], the “GI50 (nM) MOLM14-ITD D835Y” value with MOLM14 FLT3-ITD-D835Y is on record as “No Activity”. For the same compound, in the series with MOLM14 Wild type, the GI50 worked out at 28 nM.

In the case of `COC(=O)c1ccc2c(c1)/C(=C1/Nc3ccccc3/C1=N\OCCN)C(=O)N2` [Compound 3, Methyl (2Z,3E)-3-((2-aminoethoxy)imino)-2′-oxo-[2,3′-biindolinylidene]-5′-carboxylate hydrochloride], the IC50 on FLT3 kinase (setting [1]) was found to be 5 nM; with MV4;11 cells (Homo sapiens, MV4-11, Table 1), 15 nM.

Regarding `CO[C@@H]1[C@H](N(C)C(=O)c2ccccc2)C[C@H]2O[C@]1(C)n1c3ccccc3c3c4c(c5c6ccccc6n2c5c31)C(=O)NC4` [Midostaurin], the GI50 in the series on MOLM14 FLT3-ITD-D835Y was determined as 79 nM; in the series on MOLM14 Wild type, 80 nM.

For the compound “(2Z,3E)-2′-oxo-3-((2-(piperazin-1-yl)ethoximino)-[2,3′-biindolinylidene]-5′-carboxylic acid dihydrochloride [Compound 10]”, the IC50 on FLT3 kinase (setting [1]) turned out to be 3 nM; with MV4;11 cells (Table 1), 40 nM.

In the case of `O=C1Nc2ccc([N+](=O)[O-])cc2/C1=C1/Nc2ccc(F)cc2/C1=N\OCCN1CCCCC1` [Compound 19, (2Z,3E)-5-fluoro-5′-nitro-3-((2-(piperidin-1-yl)ethoxy)imino)-[2,3′-biindolinylidene]-2′-one hydrochloride], the GI50 in the series on MDA-MB-231 (Homo sapiens, MDA-MB-231) turned out to be 804 nM; in the series with MV4;11 cells (Homo sapiens, MV4-11), 1.49 nM.

In the case of `CN1CCN(CCO/N=C2/C(=C3/C(=O)Nc4ccc(F)cc43)Nc3ccccc32)CC1.Cl.Cl` [Compound 34, (2Z,3E)-5′-fluoro-3-((2-(4-methylpiperazin-1-yl)ethoxy)imino)-[2,3′-biindolinylidene]-2′-one dihydrochloride], the “weights of the liver and the kidney” value in the series on MDA-MB-231 xenograft is on record as “no significant difference”. For the same compound, the GI50 in the series with MDA-MB-231 (Homo sapiens, MDA-MB-231) turned out to be 127 nM; in the series with MV4;11 cells (Homo sapiens, MV4-11), 11.1 nM.

For `CCc1nc(C(N)=O)c(Nc2ccc(N3CCC(N4CCN(C)CC4)CC3)c(OC)c2)nc1NC1CCOCC1` [Gilteritinib], the GI50 in the series with MOLM14 FLT3-ITD-D835Y was 43 nM; with MOLM14 Wild type, 8.5 nM.

For the origin of these results see patent US11370779B2, “Pharmaceutical composition for preventing or treating acute myeloid leukemia or metastatic breast cancer” (PELEMED CO., LTD., priority 2017, dated 2022).
